Converted amounts (≈) assume the structure as drawn.
Experiments:
B16 murine melanoma = B16 murine melanoma test (survival of tumor-bearing mice); format: in vivo, mouse; details: i.p. once daily for nine days from day 1
Protocol: The B16 tumor line arose spontaneously in 1954 on the skin at the base of the ear of a C57BL mouse. The tumor line is maintained by serial passage in female C57BL mice. On day 0, female B6C3F1 mice are inoculated intraperitoneally with 0.5 mL of a 10% tumor brei. This brei is prepared by homogenizing fresh B16 tumors, grown subcutaneously in C57BL mice, in cold physiological saline. Mice are randomized in groups of ten each, with 20 animals being in the control group. The test compounds and vehicle control are administered intraperitoneally once daily for nine consecutive days beginning on day 1. A ≥20% decrease in body weight on day 5 is considered an indication of toxicity. The acceptable mean control survival time is 14-22 days. Results are expressed as a percentage of the mean survival time of the vehicle-treated control group according to the formula: [formula] Mice which survive 90 days are considered cured and are not included in the calculation of the mean survival time. The NCI criteria for activity are used. A compound is considered to have moderate activity against B16 melanoma if it has a % T/C ≥125%, and it is considered to have good activity if it has a % T/C ≥150%.

[1] = system: RPMI-7272 human melanoma cells; test: In vitro RPMI-7272 human melanoma cell growth inhibition; format: cell-based; details: RPMI-7272 melanoma, inhibition of cell doublings by 50%, 72 h, read-out: ID50 (the source's name)
Protocol: The compounds of this invention were also tested for their ability to inhibit the growth of human melanoma RPMI-7272 cells in vitro. Human melanoma RPMI-7272 cells (Quinn et al. [J. Natl. Cancer Inst. 59, 301-305 (1977)]) were propagated in RPMI-1640 medium supplemented with 10 mM Tricine (pH 7.8), 10 mM HEPES (pH 7.3), 0.075% sodium bicarbonate, and 10% (vol/vol) heat-inactivated (56° C., 30 minutes) fetal bovine serum in a 95% air:5% CO2 humidified atmosphere. Cells were seeded at 3×10^5 per 35 mm plate to initiate growth inhibition studies. Cultures to receive growth medium only (control cultures) were set up in quadruplicate; cultures to receive varying concentrations of compounds were set up at one dish per dose of compound. Twenty-four hours post-seeding, duplicate control cell cultures were trypsinized and cells were counted using a Coulter Counter (day 1 control counts). At this time, varying concentrations of test compounds, from 100 to 0.00001 μg/mL were added to cultures and growth medium only was added to control cultures. Seventy-two hours after the addition of compound, cells were trypsinized and counted. The numbers of cell population doublings (day 4) in the presence or absence of compound were calculated. The ID50 represents the dose of compound (in μg/mL) required to inhibit the number of cell doublings by 50%. A compound is considered to have in vitro activity against RPMI-7272 melanoma if it has an ID50 ≤1 μg/mL. The number of population doublings of control cultures during 72 hours was between 3 and 4. […] Dilutions to 1 mg/mL in complete growth medium were made, followed by stock preparations of 100 and 30 μg/mL in complete growth medium. Serial ten-fold dilutions in complete medium were formulated from the 100 and 30 μ g/mL stocks, respectively, and added to cultures.

P388 murine leukemia = P388 murine leukemia test (survival of tumor-bearing mice); format: in vivo, mouse; details: i.p. once daily for nine days from day 1
Protocol: The P388 tumor line originated in 1955 as a lymphocytic leukemia in a female DBA/2 mouse after the skin was painted with 3-methylcholanthrene. The tumor line is maintained by serial passage in female DBA/2 mice. On day 0, female CDF1 mice weighing 18-22 g are inoculated intraperitoneally with 1×10^6 P388 leukemia cells harvested from the ascites of DBA/2 mice. The mice are randomized into groups of six each and the test compounds and vehicle control are administered intraperitoneally once daily for nine consecutive days beginning day 1. A decrease in body weight on day 5 that is ≥20% is considered an indication of toxicity. The acceptable control mean survival time is 9-14 days. Results are expressed as a percentage of the mean survival time of the vehicle-treated control group according to the formula: [formula] Mice which survive for 30 days are considered cured and are not included in the calculation of the mean survival time. The NCI criteria for activity are used. A compound is considered to have moderate activity against P388 leukemia if it has a % T/C ≥125%, and it is considered to have good activity if it has a % T/C ≥150%.

[2] = system: LOX human amelanotic melanoma; test: LOX human amelanotic melanoma xenograft test in athymic nude mice; format: in vivo; details: for % T/C (median survival time vs vehicle control): i.p. every fourth day, three injections
Text: The LOX human amelanotic melanoma tumor line was obtained from Dr. Oystein Fodstad, Department of Biochemistry, Norwegian Radium Hospital, Oslo, Norway. The line is maintained by serial passage in athymic NCR-NU mice. On day 0, athymic nude mice, all of one sex weighing a minimum of 18 g for males and 17 g for females, are inoculated intraperitoneally with 1×10^6 LOX melanoma cells harvested from the ascites of athymic mice. The mice are randomized into groups of six each and the test compounds and vehicle control are administered intraperitoneally every fourth day beginning day 1 for a total of three injections. Animals are evaluated for toxicity on day 10. A decrease in body weight ≥20% is considered an indication of toxicity. The acceptable control median survival time is 17-24 days. Results are expressed as a percentage of the median survival time of the vehicle-treated control group according to the formula: [formula]
The NCI criteria for activity are used. A compound is considered to have moderate activity against LOX melanoma if it has a % T/C ≥140%, and it is considered to have good activity if it has a % T/C ≥200%.

L1210 murine leukemia = L1210 murine leukemia test (survival of tumor-bearing mice); format: in vivo, mouse; details: i.p. once daily for nine days from day 1
Protocol: The L1210 tumor line originated in 1948 as a lymphocytic leukemia in a female DBA/2 mouse after the skin was treated with 0.2% 20-methylcholanthrene in ethyl ether. The tumor line is maintained by serial passage in female DBA/2 mice. On day 0, female CDF1 mice weighing 18-22 g are inoculated with 1×10^5 L1210 leukemia cells harvested from the ascites of DBA/2 mice. The mice are randomized into groups of six each and the test compounds and vehicle control are administered intraperitoneally once daily for nine consecutive days beginning on day 1. A ≥20% decrease in body weight on day 5 is considered an indication of toxicity. The acceptable control mean survival time is 8-11 days. Results are expressed as a percentage of the mean survival time of the vehicle-treated control group according to the formula: [formula] Mice which survive for 30 days are considered cured and are not included in the calculation of the mean survival time. The NCI criteria for activity are used. A compound is considered to have moderate activity against L1210 leukemia if it has a % T/C ≥125%, and it is considered to have good activity if it has a % T/C ≥150%.

SMILES	IC50 [1] [µg/mL]	further results
Cc1ccc2cc(-c3cccc4ccccc34)nc(N3CCN(C)CC3)c2c1 [Example 31, 7-Methyl-1-(4-methyl-1-piperazinyl)-3-(1-naphthalenyl)-isoquinoline]	–	% T/C (mean survival time vs vehicle control) (B16 murine melanoma; dose 6 mg/kg): 133%
Nc1nc(-c2cccc3ccccc23)cc2cccc(Cl)c12 [Example 23]	0.07 (≈ 0.23 µM)	–
Cc1ccc2cc(-c3cccc4ccccc34)nc(N(C)CCN(C)C)c2c1 [Example 40, N,N,N'-Trimethyl-N'-(7-methyl-3-(1-naphthalenyl)-1-isoquinolinyl)-1,2-ethanediamine]	–	% T/C (mean survival time vs vehicle control) (B16 murine melanoma; dose 0.75 mg/kg): 135%
O=c1[nH]c(-c2cccc3ccccc23)cc2ccc(Cl)cc12 [Example 2, 7-chloro-3-(1-naphthalenyl)-1(2H)-isoquinolinone]	0.005 (≈ 0.0164 µM)	% T/C (mean survival time vs vehicle control) (P388 murine leukemia; dose 100 mg/kg): 138%
O=c1[nH]c(-c2cccc3ccccc23)cc2ccccc12 [Example 1, 3-(1-Naphthalenyl)-1(2H)-isoquinolinone]	–	% T/C (mean survival time vs vehicle control) (P388 murine leukemia; dose 200 mg/kg): 161%; Cures (number of survivors/total at 60 days) ([2]; dose 400 mg/kg): 1/6; % T/C (median survival time vs vehicle control) ([2]; dose 400 mg/kg): 168%; % T/C (mean survival time vs vehicle control) (L1210 murine leukemia; dose 100 mg/kg): 148%
Nc1nc(-c2cccc3ccccc23)cc2cc(Cl)ccc12 [Example 19]	0.055 (≈ 0.18 µM)	–
Nc1nc(-c2cccc3ccccc23)cc2ccc(Cl)cc12 [Example 21, 7-Chloro-3-(1-naphthalenyl)-1-isoquinolineamine]	0.0094 (≈ 0.0308 µM)	% T/C (mean survival time vs vehicle control) (B16 murine melanoma; dose 100 mg/kg): 138%
Cc1ccc2cc(-c3cccc4ccccc34)nc(N)c2c1 [Example 22]	0.0016 (≈ 0.00563 µM)	–
Cc1cccc2c(N)nc(-c3cccc4ccccc34)cc12 [Example 18]	0.95 (≈ 3.34 µM)	–
Cc1cccc2c(=O)[nH]c(-c3cccc4ccccc34)cc12 [Example 7]	0.29 (≈ 1.02 µM)	–
CN(C)c1ccc2cc(-c3cccc4ccccc34)[nH]c(=O)c2c1.Cl [Example 4, 7-(Dimethylamino)-3-(1-naphthalenyl)-1(2H)-isoquinolinone hydrochloride]	0.001	% T/C (mean survival time vs vehicle control) (L1210 murine leukemia; dose 6 mg/kg): 156%
Cc1ccc2cc(-c3cccc4ccccc34)[nH]c(=O)c2c1 [Example 3, 7-Methyl-3-(1-naphthalenyl)-1(2H)-isoquinolinone]	0.0072 (≈ 0.0252 µM)	% T/C (mean survival time vs vehicle control) (P388 murine leukemia; dose 100 mg/kg): 152%; Cures (number of survivors/total at 60 days) ([2]; dose 240 mg/kg): 2/6; % T/C (median survival time vs vehicle control) ([2]; dose 240 mg/kg): 271%; % T/C (mean survival time vs vehicle control) (B16 murine melanoma; dose 100 mg/kg): 149%; % T/C (mean survival time vs vehicle control) (L1210 murine leukemia; dose 200 mg/kg): 133%
Cc1cccc2cc(-c3cccc4ccccc34)[nH]c(=O)c12 [Example 15]	0.53 (≈ 1.86 µM)	–
Nc1nc(-c2cccc3ccccc23)cc2ccccc12 [Example 16]	0.22 (≈ 0.814 µM)	–
Cc1cccc2cc(-c3cccc4ccccc34)nc(N)c12 [Example 24]	0.05 (≈ 0.176 µM)	–
C[N+](C)(C)c1ccc2cc(-c3cccc4ccccc34)[nH]c(=O)c2c1 [Example 5]	0.055	–
Cc1ccc2c(N)nc(-c3cccc4ccccc34)cc2c1 [Example 20, 6-Methyl-3-(1-naphthalenyl)-1-isoquinolineamine]	0.00077 (≈ 0.00271 µM)	% T/C (mean survival time vs vehicle control) (B16 murine melanoma; dose 6 mg/kg): 130%
Cc1ccc2c(=O)[nH]c(-c3cccc4ccccc34)cc2c1 [Example 9]	0.0016 (≈ 0.00561 µM)	–
